Measured values published in paper PMC7018972, “Novel and selective inactivators of Triosephosphate isomerase with anti-trematode activity” (Scientific Reports, 2020).
Where two headings read alike, the source gives them in different places. Values belong to the molecule of their own block, whether it stands above or below them.

Target: Fasciola hepatica TIM (FhTIM) (Fasciola hepatica, UniProt S4UI50)
Experiment: Inhibition of recombinant FhTIM, coupled enzyme assay
Format: biochemical
Experimental: Expression and purification of proteins: FhTIM, RabbitTIM and HsTIM were expressed in Escherichia coli and purified as described in the literature[31],[37]. […] Before use, extensive dialysis against 100 mM triethanolamine/10 mM EDTA (pH 7.4) was performed. […] Enzymatic activity was determined following the conversion of glyceraldehydes-3-phosphate into dihydroxyacetone phosphate in a coupled enzyme assay. The decrease in absorbance at 340 nm was followed in a multiplate reader VarioskanTM Flash Multimode Reader (Thermo ScientificTM, Waltham, MA, USA) at 38 °C. The reaction mixture (1 mL, pH 7.4) contained 100 mM triethanolamine, 10 mM EDTA, 0.2 mM NADH, 1 mM glyceraldehydes-3-phosphate and 0.9 units of α-glycerol phosphate dehydrogenase. The reaction was initiated by the addition of 5 ng/mL of the TIM of interest. For the inhibition studies, TIM was incubated at a concentration of 5 mg/mL in a buffer containing 100 mM triethanolamine, 10 mM EDTA, pH 7.4 and 10% of DMSO at 37 °C for 1 h. The mixture also contained the compounds, dissolved in DMSO, at the indicated concentrations. After 1 h, 10 µL were withdrawn and added to a final volume of 100 µL of the reaction mixture for the activity assay. The inhibition assay was performed in a 96-well microplate. […] The experiments were performed in triplicate in two independent experiments.

[1] = Table 1S, screening of 340 compounds in FhTIM, table head prints no unit, µM per b8/b9, read-out: IC50
[2] = Figure 1, ranges of inhibitory activity, read-out: IC50 range
[3] = recombinant FhTIM, 1 h incubation with compound at 37 °C, read-out: IC50

Sequence of Fasciola hepatica TIM (FhTIM) (S4UI50 entry or part of it): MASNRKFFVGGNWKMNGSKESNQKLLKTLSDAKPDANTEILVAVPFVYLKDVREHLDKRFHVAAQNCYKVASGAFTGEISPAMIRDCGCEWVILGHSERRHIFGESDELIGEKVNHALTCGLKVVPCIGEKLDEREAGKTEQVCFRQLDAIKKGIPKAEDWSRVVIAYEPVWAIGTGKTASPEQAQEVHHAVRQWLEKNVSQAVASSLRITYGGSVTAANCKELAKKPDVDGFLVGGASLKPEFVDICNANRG

SMILES: [O-][n+]1onc2ccc(C=Cc3ccc4nonc4c3)cc21 [Compound 12]
IC50 [1]: > 100 µM

SMILES: COC(=O)NN=Cc1ccc2nonc2c1 [Compound 31]
IC50 [1]: > 100 µM

SMILES: O=Cc1ccc2no[n+]([O-])c2c1 [Compound 38]
IC50 [1]: > 100 µM

SMILES: [O-][n+]1onc2ccc(C=NNC(=S)Nc3ccccc3)cc21 [Compound 41]
IC50 [1]: > 100 µM

SMILES: O=C(/C=C/c1ccco1)N1CCN(C/C=C/c2ccccc2)CC1 [Compound 50]
IC50 [1]: > 100 µM

SMILES: O=C(/C=C/c1ccc([N+](=O)[O-])o1)N1CCN(C/C=C/c2ccccc2)CC1 [Compound 51]
IC50 [1]: > 100 µM

SMILES: O=[N+]([O-])c1ccc(C=CC=NNC(=S)Nc2ccccc2)o1 [Compound 54]
IC50 [1]: > 100 µM

SMILES: COCCNC(=O)/C=C/c1ccc([N+](=O)[O-])o1 [Compound 60]
IC50 [1]: > 100 µM

SMILES: CCOC(=O)C=Cc1ccc([N+](=O)[O-])o1 [Compound 66]
IC50 [1]: > 100 µM

SMILES: C=CCNC(=S)NN=Cc1ccco1 [Compound 69]
IC50 [1]: > 100 µM

SMILES: CC1(C)[N+]([O-])=c2ccc(C3OCCO3)cc2=[N+]1[O-] [Compound 105]
IC50 [1]: > 100 µM

SMILES: Cc1ccc2c(c1)=[N+]([O-])C(C)(C)[N+]=2[O-] [Compound 109]
IC50 [1]: > 100 µM

SMILES: O=C1C(=Cc2ccc([N+](=O)[O-])cc2)C(=O)N(Cc2ccccc2)S(=O)(=O)N1Cc1ccccc1 [Compound 111]
IC50 [2]: < 50 µM | IC50 [1]: < 25 µM

SMILES: O=C1C(=Cc2ccc([N+](=O)[O-])s2)C(=O)N(C2CCCCC2)S(=O)(=O)N1C1CCCCC1 [Compound 113]
IC50 [1]: > 100 µM

SMILES: NC1=NS(=O)(=O)N=C(N)C1=Cc1ccc([N+](=O)[O-])o1 [Compound 117]
IC50 [1]: > 100 µM

SMILES: O=S(=O)(NC1CCCCC1)NC1CCCCC1 [Compound 118]
IC50 [1]: > 100 µM

SMILES: O=S(=O)(NCc1ccccc1)NCc1ccccc1 [Compound 119]
IC50 [1]: > 100 µM

SMILES: O=S(=O)(NCCc1ccccc1)NCCc1ccccc1 [Compound 120]
IC50 [1]: > 100 µM

SMILES: CN(C)CCCNS(=O)(=O)NCCCN(C)C [Compound 121]
IC50 [3]: 50 ± 9 µM

SMILES: CCCCNS(=O)(=O)NCCCC [Compound 123]
IC50 [1]: > 100 µM

SMILES: NS(=O)(=O)NCc1ccccc1 [Compound 124]
IC50 [1]: > 100 µM

SMILES: CCN(CC)CCCNS(=O)(=O)NCCCN(CC)CC [Compound 125]
IC50 [1]: > 100 µM

SMILES: NC1=NS(=O)(=O)N=C(N)C1 [Compound 126]
IC50 [1]: 100 µM

SMILES: O=C1CC(=O)N(CCc2ccccc2)S(=O)(=O)N1CCc1ccccc1 [Compound 127]
IC50 [1]: > 100 µM

SMILES: C=CCN1C(=O)CSC1=NN=Cc1ccc([N+](=O)[O-])s1 [Compound 129]
IC50 [1]: > 100 µM

SMILES: CC(=O)N(C1=NN(C(C)=O)C(c2ccc([N+](=O)[O-])s2)S1)c1ccccc1 (stereo not drawn) [Compound 130]
IC50 [1]: > 100 µM

SMILES: C=CCn1c(-c2ccc([N+](=O)[O-])cc2)csc1=NN=CC=Cc1ccc([N+](=O)[O-])s1 [Compound 131]
IC50 [1]: > 100 µM

SMILES: C=CCn1c(-c2ccc(OC)cc2)csc1=NN=Cc1ccc([N+](=O)[O-])s1 [Compound 132]
IC50 [1]: > 100 µM

Other lines, results leading:

IC50 [1]: > 100 µM
SMILES: O=C(O)c1ccc(C=CCN2C(=O)c3ccccc3C2=O)cc1 (mixture of isomers) [Compound 617]

IC50 [1]: > 100 µM
SMILES: C=CCNC(=S)NN=Cc1ccc([N+](=O)[O-])s1 [Compound 136]

IC50 [1]: > 100 µM
SMILES: C=CCNC(=S)NN=CC=Cc1ccc([N+](=O)[O-])s1 [Compound 142]

IC50 [1]: 50 to 100 µM
SMILES: C=CCn1c(C)csc1=NN=Cc1ccc([N+](=O)[O-])s1 [Compound 143]

IC50 [1]: > 100 µM
SMILES: C=CCn1c(-c2ccc(Cl)cc2)csc1=NN=Cc1ccc([N+](=O)[O-])s1 [Compound 145]

IC50 [1]: > 100 µM
SMILES: C=CCn1c(-c2ccc([N+](=O)[O-])cc2)csc1=NN=Cc1ccc([N+](=O)[O-])s1 [Compound 146]

IC50 [1]: > 100 µM
SMILES: C=CCn1c(-c2ccccc2)csc1=NN=Cc1ccc([N+](=O)[O-])s1 [Compound 147]

IC50 [1]: > 100 µM
SMILES: O=c1cc(-c2ccccc2)oc2ccccc12 [Compound 148]

IC50 [1]: > 100 µM
SMILES: Cc1c(C=NNC(N)=O)no[n+]1[O-] [Compound 159]

IC50 [1]: > 100 µM
SMILES: [O-][n+]1onc(-c2ccccc2)c1CNc1cccc2ccccc12 [Compound 169]

IC50 [1]: > 100 µM
SMILES: Cc1c(CNc2cccc3ccccc23)no[n+]1[O-] [Compound 172]

IC50 [1]: 50 to 100 µM
SMILES: Cc1c(CNc2ccc3ccccc3c2)no[n+]1[O-] [Compound 173]

IC50 [1]: > 100 µM
SMILES: COC(=O)NN=Cc1no[n+]([O-])c1C [Compound 174]

IC50 [1]: > 100 µM
SMILES: CCCCNC(=O)NN=Cc1no[n+]([O-])c1C [Compound 175]

IC50 [2]: < 50 µM | IC50 [3]: 25 ± 3 µM
SMILES: [O-][n+]1c2ccc(O)cc2[n+]([O-])c2cc(Cl)c(Cl)cc21 [Compound 183]
